Results from publication PMC10447463, “Data-mining unveils structure–property–activity correlation of viral infectivity enhancing self-assembling peptides” (Nature Communications, 2023).
Like-named read-outs stand apart in the source and are kept apart here.

Key:
[1] = Zeta-potential measurement; type: physicochemical
Summary of the method: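 In this measurement, peptides aggregated for a day at RT in phosphate-buffered saline (pH 7.4, 1 mg/mL) are diluted into 1 mM potassium chloride, and the electrophoretic mobility is translated into zeta potential by Smoluchowski's relation.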

[2] = Turbidity, derived count rate of scattered light; type: physicochemical; conditions: for Count Rate / kcps: derived count rate of scattered light at 633 nm, 173°, from zeta-potential measurement, 0.1 mg/mL in 1 mM KCl after 1 d at 1 mg/mL in PBS, turbidity / microscopic aggregation, mean of triplicate
Summary of the method: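 Samples: 1 mg/mL in PBS pH 7.4 (from DMSO), 1 d at RT, then diluted in 1 mM KCl immediately before measurement. Triplicates, two independent runs averaged.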

[3] = type: physicochemical; set-up: key to Fibril / Fibril Formation / TEM 2cat / Fibril: 1 = fibrils present; 0 non-fibrillar structures; conditions: for Fibril / Fibril Formation: 1 mg/mL, uranyl acetate stain, qualitative
[4] = Turbidity, derived count rate of scattered light; type: physicochemical; conditions: for Count Rate: derived count rate of scattered light (turbidity); for Log10 Count Rate: turbidity, derived count rate of scattered light, data of Figure 2D
[5] = β-sheet content by ATR-FT-IR; type: physicochemical; conditions: Fig. S7 panel A; β-sheet content by ATR-FT-IR
Summary of the method: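 Fluorescence at 470 nm (365 nm excitation) was read 20 min after adding fluorescamine to DMSO-dissolved filtrate and unfiltered PNF, then CR computed as 100 − 100 × filtrate/original. Secondary structure came from ATR FT-IR spectra of lyophilized PNF powder.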

[6] = zeta-potential of peptide, source data of Figure 2C
[7] = zeta-potential of the peptide assemblies, mean, Figure 3A source data
[8] = Log10 of derived count rate of scattered light (turbidity)
[9] = log10 of derived count rate of scattered light (turbidity)
[10] = turbidity, Log10 of derived count rate of scattered light, Figure 3A source data
[11] = Fig S10 panel D, fibril category by TEM
[12] = TEM, 1 = fibrils present, 0 = non-fibrillar
[13] = TEM, 1 = fibrils present, 0 = non-fibrillar structures
[14] = category: fibrils present or non-fibrillar
[15] = zeta potential of peptide assemblies
[16] = FigS12 panel A, fibril category by TEM

Row | Substance | Zeta-Pot. [1] | Zeta-Potential / mV [1, 6] [mV] | Zeta-Potential / mV [1, 7] [mV] | Log10 Count Rate [2, 8] | Count Rate / kcps [2] [kcps] | Log10 Count Rate [2, 9] | Log10 Count Rate [2, 10] | TEM 2cat [3, 11] | Fibril / Fibril Formation ([3]; TEM) | Fibril [3, 12] | Fibril [3, 13] | TEM 2cat [3, 14] | Count Rate [4] | Log10 Count Rate [4] | b -sheet / % [5] [%] | Zeta-Pot. [1, 15] | Fibril ([3]; Fig S10 panel E) | TEM 2cat [3, 16] | Fibril ([3]; FigS12 panel B, TEM)
1 | KIKIQIW | 12.5 | 11.255 | 12.5 | 2.161 | 145 | 2.161 | 2.161 | 1 | 1 | 1 | 1 | 1 | 144.9 | 2.161 | 49.1721 | – | – | – | –
2 | KIKQII | – | -6.459 | -12.67 | 2.086 | 122 | 2.086 | 2.086 | 0 | 0 | 0 | 0 | – | 122 | 2.086 | 38.67 | -12.67 | 0 | 0 | 0
3 | KLKLKLQL | – | 8.477 | 8.39 | 1.632 | 43 | 1.632 | 1.632 | 1 | 1 | 1 | 1 | – | 42.87 | 1.632 | 42.3363 | 8.39 | – | 1 | 1
4 | KLKLQLL | – | -3.1875 | -4.93 | 1.861 | 73 | 1.861 | 1.861 | 1 | 1 | 1 | 1 | – | 72.67 | 1.861 | 39.56 | -4.93 | – | 1 | 1
5 | KVKVQVV | – | -4.675 | -7.92 | 1.443 | 28 | 1.443 | 1.443 | 0 | 0 | 0 | 0 | – | 27.73 | 1.443 | 45.1 | -7.92 | – | 0 | 0
6 | KVKVQVVV | – | 1.657 | 0.15 | 2.213 | 163 | 2.213 | 2.213 | 1 | 1 | 1 | 1 | – | 163.1 | 2.213 | 45.8125 | 0.147 | – | 1 | 1
7 | MKIKIQINM | – | 9.332 | 9.13 | 2.9918 | 981 | 2.9918 | 2.9918 | 1 | 1 | 1 | 1 | 1 | 981.3 | 2.9918 | 38.6306 | 9.13 | – | – | –
